We go through 2 compounds from PMC11058261, “Nucleoside Phosphorylases make N7-xanthosine” (Nature Communications, 2024).

Assay [1] deals with T1, GtPyNP (pyrimidine NP from G. thermoglucosidasius) (Parageobacillus thermoglucosidasius, UniProt A0AAN0YQC1).
T1 construct: gene deoA
The experiment in a line: HPLC of glycosylation products. The assay is classed as biochemical. To be noted: 500 µM X, 500 µM ribose 1-phosphate; 1 g/L enzyme; pH 9 or pH 7; 50 °C.

The target of assay [2] is T2, human purine NP (Homo sapiens, UniProt P00491).
T2 construct: gene PNP
T2 sequence (P00491 1-289): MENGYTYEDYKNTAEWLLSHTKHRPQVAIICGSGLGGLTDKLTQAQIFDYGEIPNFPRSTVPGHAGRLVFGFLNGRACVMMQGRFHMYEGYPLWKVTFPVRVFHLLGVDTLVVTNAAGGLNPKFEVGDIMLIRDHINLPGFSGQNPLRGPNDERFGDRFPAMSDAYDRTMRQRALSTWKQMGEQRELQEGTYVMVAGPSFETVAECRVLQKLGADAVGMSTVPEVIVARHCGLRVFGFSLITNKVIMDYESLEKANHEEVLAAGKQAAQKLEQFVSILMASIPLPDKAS
Briefly: HPLC of glycosylation products. The assay is classed as biochemical. As to conditions: 500 µM X, 500 µM ribose 1-phosphate; 1 g/L enzyme; pH 9 or pH 7; 50 °C.

T1 sequence (A0AAN0YQC1 entry or part of it): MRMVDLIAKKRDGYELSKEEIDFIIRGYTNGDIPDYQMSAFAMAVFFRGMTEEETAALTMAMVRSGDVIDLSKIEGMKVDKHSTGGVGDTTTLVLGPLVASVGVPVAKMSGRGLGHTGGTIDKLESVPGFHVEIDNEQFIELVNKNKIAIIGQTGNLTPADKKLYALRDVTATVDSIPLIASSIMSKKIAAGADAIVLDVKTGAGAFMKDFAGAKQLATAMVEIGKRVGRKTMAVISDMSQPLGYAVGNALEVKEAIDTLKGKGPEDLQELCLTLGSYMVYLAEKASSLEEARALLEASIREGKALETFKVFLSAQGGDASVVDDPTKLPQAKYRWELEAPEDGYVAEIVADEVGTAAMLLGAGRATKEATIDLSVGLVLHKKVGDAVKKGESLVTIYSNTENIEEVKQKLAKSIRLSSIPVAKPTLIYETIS

Consider `O=c1[nH]c(=O)c2[nH]cnc2[nH]1` [X, xanthine], for which the “HPLC of glycosylation products” value in assay [1] was “purine and pyrimidine NP from Geobacillus thermoglucosidasius”; in assay [2], “mammalian NPs (human purine NP)”.
`O=P(O)(O)O[C@H]1O[C@H](CO)[C@@H](O)[C@H]1O` [Rib1P, ribose 1-phosphate]: the “HPLC of glycosylation products” value in assay [1] was “purine and pyrimidine NP from Geobacillus thermoglucosidasius”; in assay [2], “mammalian NPs (human purine NP)”.
